Results taken from paper PMC10108347, “Heterobifunctional Ligase Recruiters Enable pan-Degradation of Inhibitor of Apoptosis Proteins” (Journal of Medicinal Chemistry, 2023).

Assays:
VHL30 = VHL30 (Homo sapiens, UniProt P40337); experiment: Immunoblotting (western blot) quantification of VHL30 levels in MM.1S cells
Method: (§1) To evaluate the capability of our panel of hetero-PROTACs for E3 ligase degradation, VHL19, VHL30, CRBN, cIAP1, cIAP2, and XIAP levels were quantified by western blot analyses. […] SDS-PAGE was performed, and proteins were then transferred onto PVDF membranes. Blotted membranes were blocked with 5% milk in Tris-buffered saline/Tween20 (TBST). Primary antibodies were diluted in 5% BSA in TBST, and incubations were performed overnight at 4 °C. Secondary HRP-conjugated antibodies diluted in 5% milk were incubated for 1 h at room temperature. Detection of proteins on PVDF was carried out using the WesternBright ECL HRP substrate or the WesternBright Sirius HRP substrate (Advansta, San Jose, USA) and imaged with LAS 4000× (Fujifilm). Membranes were subjected to 10 min incubation with Restore Western Blot Stripping Buffer (Thermo Fisher Scientific, Waltham, USA), followed by TBST washes. After brief re-activation with methanol, the membranes were blocked, and further probing of proteins was carried out.
(§2) Quantification of blots was performed using ImageJ software (National Institutes of Health).

VHL19 = VHL19 (Homo sapiens, UniProt P40337); experiment: Immunoblotting (western blot) quantification of VHL19 levels in MM.1S cells; conditions: 16 h, 1 μM
Method: as §1, §2

[1] = target: T1, plasma protein (HSA column) (Homo sapiens, UniProt P02768); experiment: Plasma protein binding estimated by HPLC on a […] HSA column; type: in vitro ADME; conditions: CHIRALPAK HSA column (50 × 3 mm, 5 μm), estimated by an HPLC-based method, read-out: PPB (plasma protein binding) (converted)
T1 construct: purchased
Outline: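 % PPB was estimated from log retention time on an HSA column (50 × 3 mm, 5 μm, 30 °C), calibrated against log K of literature-PPB reference drugs. Samples were eluted with 50 mM ammonium acetate pH 7.4 and an iPrOH gradient to 30%, with UV detection at 254 nm.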

Sequence of VHL30 (P40337 whole entry): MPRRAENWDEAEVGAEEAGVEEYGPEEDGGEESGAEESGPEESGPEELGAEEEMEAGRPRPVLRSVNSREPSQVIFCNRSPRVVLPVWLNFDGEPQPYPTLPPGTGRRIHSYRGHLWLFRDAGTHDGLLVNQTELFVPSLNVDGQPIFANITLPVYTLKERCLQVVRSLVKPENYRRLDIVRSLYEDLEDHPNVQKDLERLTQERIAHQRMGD
T1 sequence (P02768 25-609): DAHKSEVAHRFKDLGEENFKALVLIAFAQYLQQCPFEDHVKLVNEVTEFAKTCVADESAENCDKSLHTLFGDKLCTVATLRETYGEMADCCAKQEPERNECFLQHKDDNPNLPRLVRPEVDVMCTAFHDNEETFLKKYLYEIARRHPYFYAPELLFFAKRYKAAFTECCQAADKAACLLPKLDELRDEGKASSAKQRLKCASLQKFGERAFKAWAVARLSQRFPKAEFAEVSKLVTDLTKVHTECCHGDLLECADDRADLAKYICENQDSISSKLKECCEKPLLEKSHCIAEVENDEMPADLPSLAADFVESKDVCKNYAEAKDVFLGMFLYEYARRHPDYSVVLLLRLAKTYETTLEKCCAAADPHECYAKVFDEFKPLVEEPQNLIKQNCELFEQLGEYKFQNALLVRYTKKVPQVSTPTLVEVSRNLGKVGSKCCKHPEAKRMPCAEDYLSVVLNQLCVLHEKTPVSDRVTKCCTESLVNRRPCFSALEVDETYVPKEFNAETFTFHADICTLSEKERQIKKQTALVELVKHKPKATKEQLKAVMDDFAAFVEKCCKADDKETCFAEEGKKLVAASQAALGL
Sequence of VHL19 (P40337 54-213): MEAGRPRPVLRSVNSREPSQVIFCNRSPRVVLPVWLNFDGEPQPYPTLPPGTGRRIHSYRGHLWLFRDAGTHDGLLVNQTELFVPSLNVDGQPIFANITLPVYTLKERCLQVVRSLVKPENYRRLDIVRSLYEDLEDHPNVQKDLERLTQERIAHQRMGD

Row | Compound | remaining activity at 0.1 µM (VHL30; MM1.S, 16 h, read-out: %remaining protein VHL30, MM.1S cells, 16 h treatment at 0.1 μM, normalized to loading control and DMSO) | VHL30 degradation (in words) (VHL30; MM.1S cells, western blot) | remaining VHL19 (VHL19) | fraction unbound at 0.5 mg/mL [1]
1 | CN[C@@H](C)C(=O)N[C@H](C(=O)N1C[C@@H](Oc2cccc(OCCCCC(=O)N[C@H](C(=O)N3C[C@H](O)C[C@H]3C(=O)N[C@@H](C)c3ccc(-c4scnc4C)cc3)C(C)(C)C)c2)C[C@H]1C(=O)N[C@@H]1CCCc2ccccc21)C1CCCCC1 [PROTAC 9, (2S,4S)-1-((S)-2-Cyclohexyl-2-((S)-2-(methylamino)propanamido)acetyl)-4-(3-((5-(((S)-1-((2S,4R)-4-hydroxy-2-(((S)-1-(4-(4-methylthiazol-5-yl)phenyl)ethyl)carbamoyl)pyrrolidin-1-yl)-3,3-dimethyl-1-oxobutan-2-yl)amino)-5-oxopentyl)oxy)phenoxy)-N-((R)-1,2,3,4-tetrahydronaphthalen-1-yl)pyrrolidine-2-carboxamide] | 9% | most pronounced after 6 h of treatment | 24% | –
2 | CN[C@@H](C)C(=O)N[C@@H](C(=O)N1CCC[C@H]1C(=O)N[C@@H]1c2ccccc2C[C@@H]1OCC#CC#CCO[C@H]1Cc2ccccc2[C@H]1NC(=O)[C@@H]1CCCN1C(=O)[C@H](NC(=O)[C@H](C)NC)C1CCCCC1)C1CCCCC1 [AZD5582, reference compound] | – | – | – | 0.06
